Legend:
[1] = target: T1, Transient receptor potential cation channel subfamily V member 1 (Rattus norvegicus, UniProt O35433); experiment: Vanilloid receptor subtype 1 antagonist activity based on its ability to block capsaicin-induced (CAP) activation of the rat VR1 channel in a HEK293 cell line; type: functional
[2] = target: T1, Transient receptor potential cation channel subfamily V member 1; experiment: Vanilloid receptor subtype 1 antagonist activity based on its ability to block low pH-induced activation of the rat VR1 channel in a HEK293 cell line; type: functional
[3] = Pharmacokinetic (PK) parameter Vz in rat; type: ADME, organism-based; conditions: in vivo, read-out: Vz
[4] = Oral bioavailability in rat by po administration at a dose of 40 mg/kg; type: ADME, organism-based; conditions: in vivo
[5] = Tmax in rat by po administration at a dose of 40 mg/kg; type: ADME, organism-based; parameters: dose 40 mg/kg, route oral; conditions: in vivo
[6] = Half life period in rat by iv administration at a dose of 3 mg/kg; type: ADME, organism-based; parameters: dose 3 mg/kg, route intravenous; conditions: in vivo
[7] = Cmax in rat by po administration at a dose of 40 mg/kg; type: ADME, organism-based; parameters: dose 40 mg/kg, route oral; conditions: in vivo
[8] = Plasma clearance in rat by iv administration at a dose of 3 mg/kg; type: ADME, organism-based; parameters: dose 3 mg/kg, route intravenous

T1 sequence (O35433 whole entry): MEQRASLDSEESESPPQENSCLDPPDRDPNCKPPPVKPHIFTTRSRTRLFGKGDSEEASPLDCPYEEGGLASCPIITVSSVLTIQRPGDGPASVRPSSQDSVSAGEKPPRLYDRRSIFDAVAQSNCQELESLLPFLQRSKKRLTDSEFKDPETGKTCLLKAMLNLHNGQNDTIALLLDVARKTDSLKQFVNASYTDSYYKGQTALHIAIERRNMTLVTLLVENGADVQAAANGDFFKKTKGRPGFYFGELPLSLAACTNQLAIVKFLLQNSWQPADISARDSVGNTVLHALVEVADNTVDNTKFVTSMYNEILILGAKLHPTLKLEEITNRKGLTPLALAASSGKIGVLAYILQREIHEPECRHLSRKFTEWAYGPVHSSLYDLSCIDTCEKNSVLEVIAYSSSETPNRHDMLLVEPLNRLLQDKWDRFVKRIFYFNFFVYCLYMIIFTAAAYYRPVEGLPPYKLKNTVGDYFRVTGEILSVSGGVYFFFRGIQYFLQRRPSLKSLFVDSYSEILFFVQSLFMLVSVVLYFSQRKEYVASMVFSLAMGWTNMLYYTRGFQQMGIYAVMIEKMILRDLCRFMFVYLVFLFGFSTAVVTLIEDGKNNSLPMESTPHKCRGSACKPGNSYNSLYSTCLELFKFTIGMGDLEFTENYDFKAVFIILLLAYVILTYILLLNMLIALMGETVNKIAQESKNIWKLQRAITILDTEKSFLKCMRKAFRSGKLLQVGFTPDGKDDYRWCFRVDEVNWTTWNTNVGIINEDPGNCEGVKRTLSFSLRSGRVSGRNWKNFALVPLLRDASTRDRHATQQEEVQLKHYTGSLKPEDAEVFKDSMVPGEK

IC50 [1] | IC50 [2] | Structure (SMILES) | also measured
111 nM | 121 nM | CCc1ccc(NC(=O)N2CCN(c3ncccc3C(F)(F)F)CC2)cc1 | –
27.7 nM | 61.5 nM | CC(C)c1ccc(NC(=O)N2CCN(c3ncccc3C(F)F)CC2)cc1 | –
25.3 nM | 173 nM | Cc1cccnc1N1CCN(C(=O)Nc2ccc(C(C)C)cc2)CC1 | –
201 nM | 1400 nM | CC(C)c1ccc(NC(=O)N2CCN(c3ncccc3C=O)CC2)cc1 | –
63.5 nM | 81.4 nM | O=C(Nc1ccc(C(F)(F)F)cc1)N1CCN(c2ncccc2Cl)CC1 | –
230 nM | 828 nM | CCc1cccnc1N1CCN(C(=O)Nc2ccc(C(C)C)cc2)CC1 | –
17.4 nM | 23.3 nM | CCC(C)c1ccc(NC(=O)N2CCN(c3ncccc3Cl)CC2)cc1 (stereo not drawn) | –
29.8 nM | 91.7 nM | O=C(Nc1ccc(C2CCCCC2)cc1)N1CCN(c2ncccc2Cl)CC1 | –
56.7 nM | 77.4 nM | CC(C)c1ccc(NC(=O)N2CCN(c3ncccc3I)CC2)cc1 | –
190 nM | 245 nM | CC(C)c1ccc(NC(=O)N2CCN(c3ncccc3[N+](=O)[O-])CC2)cc1 | –
93.2 nM | 261 nM | O=C(Nc1ccc(OC(F)(F)F)cc1)N1CCN(c2ncccc2Cl)CC1 | –
479 nM | 278 nM | O=C(Nc1ccc2ccccc2c1)N1CCN(c2ncccc2Cl)CC1 | –
117 nM | 203 nM | CCCCc1ccc(NC(=O)N2CCN(c3ncccc3Cl)CC2)cc1 | –
11.5 nM | – | CC(C)c1ccc(NC(=O)N2CCN(c3ncccc3Cl)CC2)cc1 | –
287 nM | > 25000 nM | CC(C)c1ccc(NC(=O)N2CCN(c3ncccc3C#N)CC2)cc1 | –
285 nM | 310 nM | O=C(Nc1ccc(I)cc1)N1CCN(c2ncccc2Cl)CC1 | –

IC50 [1] | IC50 [2] | Structure (SMILES) | also measured
3.9 nM | 17.2 nM | CC(C)(C)[C@H]1CC[C@H](NC(=O)N2CCN(c3ncccc3Cl)CC2)CC1 | –
556 nM | – | Cc1ccc(NC(=O)N2CCN(c3ncccc3C(F)(F)F)CC2)cc1 | –
872 nM | 575 nM | CC(C)c1ccc(NC(=S)N2CCN(c3ncccc3C(F)(F)F)CC2)cc1 | –
246 nM | 441 nM | CC(C)(C)c1ccc(NC(=S)N2CCN(c3ncccc3C(F)(F)F)CC2)cc1 | –
491 nM | 1010 nM | O=C(Nc1ccc(Br)cc1)N1CCN(c2ncccc2Cl)CC1 | –
655 nM | – | O=C(Nc1ccc(Cl)cc1)N1CCN(c2ncccc2Cl)CC1 | –
11.3 nM | 57.7 nM | CC(C)(C)c1ccc(NC(=O)N2CCN(c3ncccc3C(F)(F)F)CC2)cc1 | –
1360 nM | 5180 nM | CCCCc1ccc(NC(=O)N2CCN(c3ncccc3C(F)(F)F)CC2)cc1 | –
4.6 nM | 27.1 nM | CC(C)c1ccc(NC(=O)N2CCN(c3ncccc3Br)CC2)cc1 | –
107 nM | 56.6 nM | CCc1ccc(NC(=O)N2CCN(c3ncccc3Cl)CC2)cc1 | –
1110 nM | > 25000 nM | O=C(Nc1ccc([N+](=O)[O-])cc1)N1CCN(c2ncccc2Cl)CC1 | –
57.5 nM | – | CC(C)c1ccc(NC(=O)N2CCN(c3ncccc3C(F)(F)F)CC2)cc1 | –
258 nM | 916 nM | O=C(Nc1ccc(Oc2ccccc2)cc1)N1CCN(c2ncccc2C(F)(F)F)CC1 | –
– | – | CC(C)(C)c1ccc(NC(=O)N2CCN(c3ncccc3Cl)CC2)cc1 | Vd [3]: 5.8 L/kg; bioavailability [4]: 15.1%; Tmax [5]: 30 min; half-life [6]: 54 min; Cmax [7]: 1120 ng/mL; clearance [8]: 76.7 mL/min/kg
41.6 nM | 73 nM | CCCc1ccc(NC(=O)N2CCN(c3ncccc3Cl)CC2)cc1 | –
58 nM | – | Oc1cc2c(cc1O)CN(C(=S)NCCc1ccc(Cl)cc1)CCC2 [CAPSAZEPINE] | –

Reference: ChEMBL document CHEMBL1136303, “4-(2-pyridyl)piperazine-1-carboxamides: potent vanilloid receptor 1 antagonists” (Bioorg Med Chem Lett, 2003)
